Results taken from US6313177A, “D-mannitol derivatives as HIV aspartyl protease inhibitors” (Pharmacor Inc., priority 1999, dated 2001).
Like-named read-outs stand apart in the source and are kept apart here.

Target: T1, recombinant HIV-1 protease (Human immunodeficiency virus type 1 group M subtype B, UniProt P04585)
T1 construct: recombinant HIV-1 protease; purchased Bachem Bioscience
Assay: Fluorometric (FRET) enzymatic assay for the inhibition constant (Ki) against the HIV protease
Type: biochemical
Description: Enzymatic Assay for Determining the Inhibition Constant (Ki) of Synthetic Compounds Prepared Against the HIV Protease
This is a fluorometric assay based on the cleavage by protease of a substrate carrying a donor group (EDANS, excitation at 340 nm and emission at 490 nm) and an acceptor group (DABCYL) on each side of the cleavage site, interacting together through fluorescence resonance energy transfer (FRET). Cleavage of the substrate by protease stops energy exchange between the two groups, resulting in a time-dependent increase in fluorescence intensity that is linearly related to the extent of substrate hydrolysis.
The enzymatic assay is done at 30° C. in a spectrophotometer microcuvet, in a total volume of 400 μL. The apparatus used for readings is a UV-visible Cary 1 spectrophotometer made by Varian. The reaction is run first in the absence of protease inhibitors for 2 min, using 355 μL of buffer at pH 4.7 (sodium acetate 100 mM, NaCl 1 M, EDTA 1 mM, DTT 1 mM, dimethylsulfoxide 10%, and BSA 1 mg/mL), 40 μL of substrate H-2930 from Molecular Probes (final concentration 10 μM) and 5 μL of recombinant HIV-1 protease (final concentration 18.3 nM) purchased from Bachem Bioscience. Fluorescence readings at […] are taken continuously during the reaction, allowing determination of the enzyme's initial velocity (v0). At the end of the 2 min incubation, the potential inhibitor at a defined concentration in a volume of 2 μL is added to the reaction, and fluorescence readings are taken for another 2 min, allowing determination of enzyme velocity (vi) in the presence of the inhibitory compound. Several concentrations of the putative inhibitors are tested in the assay. After calculation of vo and vi, the inhibition constant (Ki) of the compound is determined using the equation of Henderson: [formula]
and [I]=inhibitor concentration, [S ]=substrate concentration, Km=Michaelis-Menten constant, Kiapp =apparent Ki
Note that the Michaelis-Menten constant of HIV protease is determined by running the assay without inhibitors, using several concentrations of substrate, and plotting the results as a Cornish-Bowden graph with the ratio substrate concentration/velocity as the ordinate and substrate concentration as the abscissa.

[1] = Table 2, tetra-substituted D-mannitol derivatives, pH 4.7, 30° C., substrate 10 μM, protease 18.3 nM
[2] = Table 1, benzylated D-mannitol derivatives, pH 4.7, 30° C., substrate 10 μM, protease 18.3 nM
[3] = Table 3, di- and tri-substituted D-mannitol derivatives, pH 4.7, 30° C., substrate 10 μM, protease 18.3 nM

Structure (SMILES) | Ki [2] | further results
O[C@@H]([C@H](O)[C@@H](COCc1ccccc1)OCc1ccc2ccccc2c1)[C@@H](COCc1ccccc1)OCc1ccc2ccccc2c1 [Compound 80, 1,6-di-O-benzyl-2,5-di-O-(2-naphthylmethyl)-D-mannitol] |  | Ki [1]: > 1.25 µM
N#Cc1ccc(COC[C@@H](OCc2ccccc2)[C@@H](O)[C@H](O)[C@@H](COCc2ccc(C#N)cc2)OCc2ccccc2)cc1 [Compound 28, 1,6-di-O-(4-cyanobenzyl)-2,5-di-O-benzyl-D-mannitol] | 4.3 µM | 
N#Cc1ccc(COC[C@@H](OCc2ccc(C#N)cc2)[C@@H](O)[C@H](O)[C@@H](COCc2ccc(C#N)cc2)OCc2ccc(C#N)cc2)cc1 [Compound 12, 1,2,5,6-tetra-O-(4-cyanobenzyl)-D-mannitol] | 3.1 µM | 
Nc1ccc(CO[C@H](COCc2ccccc2)[C@@H](O)[C@H](O)[C@@H](COCc2ccccc2)OCc2ccccc2)cc1 [Compound 9, 1,2,6-tri-O-benzyl-5-O-(4-aminobenzyl)-D-mannitol] | 3.3 µM | 
Oc1cccc(CO[C@H](COCc2ccccc2)[C@@H](O)[C@H](O)[C@@H](COCc2ccccc2)OCc2cccc(O)c2)c1 [Compound 3, 1,6-di-O-benzyl-2,5-di-O-(3-hydroxybenzyl)-D-mannitol] | 6 µM | 
O[C@@H]([C@H](O)[C@@H](COCc1ccccc1)OCc1ccc(F)cc1F)[C@@H](COCc1ccccc1)OCc1ccc(F)cc1F [Compound 23, 1,6-di-O-benzyl-2,5-di-O-(2,4-difluorobenzyl)-D-mannitol] | 2.6 ± 0.5 µM | 
O[C@@H]([C@H](O)[C@@H](COCc1ccccc1)OCC=Cc1ccccc1)[C@@H](COCc1ccccc1)OCC=Cc1ccccc1 [Compound 84, 1,6-di-O-benzyl, 2,5-di-O-cinnamyl-D-mannitol] |  | Ki [1]: > 1 µM
O[C@@H]([C@H](O)[C@@H](COCc1ccccc1)OCc1c(F)cccc1F)[C@@H](COCc1ccccc1)OCc1c(F)cccc1F [Compound 25, 1,6-di-O-benzyl-2,5-di-O-(2,6-difluorobenzyl)-D-mannitol] | 6.4 µM | 
O[C@@H]([C@H](O)[C@@H](COCc1ccccc1F)OCc1ccccc1)[C@@H](COCc1ccccc1F)OCc1ccccc1 [Compound 32, 1,6-di-O-(2-fluorobenzyl)-2,5-di-O-benzyl-D-mannitol] | 0.6 µM | 
O[C@@H]([C@H](O)[C@@H](COCc1ccccc1)OCc1ccccn1)[C@@H](COCc1ccccc1)OCc1ccccn1 [Compound 88, 1,6-di-O-benzyl-2,5-di-O-(2-pyridylmethyl)-D-mannitol] |  | Ki [1]: 28 µM
CSC(=S)O[C@H](COCc1ccccc1)[C@@H](O)[C@H](O)[C@@H](COCc1ccccc1)OCc1ccc(F)cc1 [Compound 106, 1,6-di-O-benzyl-2-O-(4-fluorobenzyl)-5-O-(methylthiothioxo)-D-mannitol] |  | Ki [3]: > 5 µM
O=[N+]([O-])c1ccc(CO[C@H](COCc2ccccc2)[C@@H](O)[C@H](O)[C@H](O)COCc2ccccc2)cc1 [Compound 99, 1,6-di-O-benzyl-2-O-(4-nitrobenzyl)-D-mannitol] |  | Ki [3]: 45 µM
O[C@@H]([C@H](O)[C@@H](COCc1ccccc1)OCc1cccc(F)c1)[C@@H](COCc1ccccc1)OCc1cccc(F)c1 [Compound 20, 1,6-di-O-benzyl-2,5-di-O-(3-fluorobenzyl)-D-mannitol] | 1.8 µM | 
O[C@@H]([C@H](O)[C@@H](COCc1ccc(C(F)(F)F)cc1)OCc1ccc(C(F)(F)F)cc1)[C@@H](COCc1ccc(C(F)(F)F)cc1)OCc1ccc(C(F)(F)F)cc1 [Compound 11, 1,2,5,6-tetra-O-(4-trifluoromethylbenzyl)-D-mannitol] | > 5 µM | 
O[C@@H]([C@H](O)[C@@H](COCc1ccccc1)OCC1CC1)[C@@H](COCc1ccccc1)OCC1CC1 [Compound 83, 1,6-di-O-benzyl-2,5-di-O-cyclopropylmethyl-D-mannitol] |  | Ki [1]: 9 µM
O[C@@H]([C@H](O)[C@@H](COCc1c(F)cccc1F)OCc1ccccc1)[C@@H](COCc1c(F)cccc1F)OCc1ccccc1 [Compound 35, 1,6-di-O-(2,6-difluorobenzyl)-2,5-di-O-benzyl-D-mannitol] | 0.33 ± 0.05 µM | 
O[C@@H]([C@H](O)[C@@H](COCc1ccccc1F)OCc1cccs1)[C@@H](COCc1ccccc1F)OCc1ccc(F)cc1 [Compound 97, 1,6-di-O-(2-fluorobenzyl)-2-O-(4-fluorobenzyl)-5-O-(2-thienylmethyl)-D-mannitol] |  | Ki [1]: 0.23 µM
O[C@@H]([C@H](O)[C@@H](COCc1ccc(F)cc1F)OCc1ccccc1)[C@@H](COCc1ccc(F)cc1F)OCc1ccccc1 [Compound 33, 1,6-di-O-(2,4-fluorobenzyl)-2,5-di-O-benzyl-D-mannitol] | 4.2 ± 0.5 µM | 
COC(=O)c1ccc(CO[C@H](COCc2ccccc2)[C@@H](O)[C@H](O)[C@@H](COCc2ccccc2)OCc2ccc(C(=O)OC)cc2)cc1 [Compound 19, 1,6-di-O-benzyl-2,5-di-O-(4-carbomethoxybenzyl)-D-mannitol] | 8.4 µM | 
O[C@@H]([C@H](O)[C@@H](COCc1ccccc1)OCc1ccc(Cl)cc1)[C@@H](COCc1ccccc1)OCc1ccc(Cl)cc1 [Compound 17, 1,6-di-O-benzyl-2,5-di-O-(4-chlorobenzyl)-D-mannitol] | 2 µM | 
O[C@@H]([C@H](O)[C@@H](COCc1ccc(F)cc1)OCc1ccccc1)[C@@H](COCc1ccc(F)cc1)OCc1ccccc1 [Compound 31, 1,6-di-O-(4-fluorobenzyl)-2,5-di-O-benzyl-D-mannitol] | 2.5 µM | 
Oc1ccc(CO[C@H](COCc2ccccc2F)[C@@H](O)[C@H](O)[C@@H](COCc2ccccc2F)OCc2ccc(O)cc2)cc1 [Compound 5, 1,6-di-(2-fluorobenzyl)-2,5-di-(4-hydroxybenzyl)-D-mannitol] | 2.7 µM | 
N#Cc1ccc(CO[C@H](COCc2ccccc2)[C@@H](O)[C@H](O)[C@@H](COCc2ccccc2)OCc2ccc(C#N)cc2)cc1 [Compound 14, 1,6-di-O-benzyl-2,5-di-O-(4-cyanobenzyl)-D-mannitol] | 5.4 µM | 
O[C@@H]([C@H](O)[C@@H](COCc1ccc(Cl)cc1)OCc1ccccc1)[C@@H](COCc1ccc(Cl)cc1)OCc1ccccc1 [Compound 55, 1,6-di-O-(4-chlorobenzyl)-2,5-di-O-benzyl-D-mannitol] |  | Ki: 5.2 µM

Continued, in another order:

Ki [2] | Structure (SMILES) | further results
0.8 µM | Cc1ccccc1CO[C@H](COCc1ccccc1F)[C@@H](O)[C@H](O)[C@@H](COCc1ccccc1F)OCc1ccccc1C [Compound 38, 1,6-di-O-(2-fluorobenzyl)-2,5-di-O-(2-methylbenzyl)-D-mannitol] | 
5 µM | O[C@@H]([C@H](O)[C@@H](COCc1ccc(OCc2ccccc2)cc1)OCc1ccc(F)cc1)[C@@H](COCc1ccc(OCc2ccccc2)cc1)OCc1ccc(F)cc1 [Compound 58, 1,6-di-O-(4-benzyloxybenzyl)-2,5-di-O-(4-fluorobenzyl)-D-mannitol] | 
0.28 µM | O[C@@H]([C@H](O)[C@@H](COCc1ccccc1F)OCc1ccc(F)cc1)[C@@H](COCc1ccccc1F)OCc1ccc(F)cc1 [Compound 40, 1,6-di-O-(2-fluorobenzyl)-2,5-di-O-(4-fluorobenzyl)-D-mannitol] | 
1.5 µM | O[C@@H]([C@H](O)[C@@H](COCc1ccccc1F)OCc1cccc(F)c1)[C@@H](COCc1ccccc1F)OCc1cccc(F)c1 [Compound 57, 1,6-di-O-(2-fluorobenzyl)-2,5-di-O-(3-fluorobenzyl)-D-mannitol] | 
0.9 µM | Oc1ccc(COC[C@@H](OCc2ccc(F)cc2)[C@@H](O)[C@H](O)[C@@H](COCc2ccc(OCc3ccccc3)cc2)OCc2ccc(F)cc2)cc1 [Compound 76, 1-O-(4-hydroxybenzyl)-6-O-(4-benzyloxybenzyl)-2,5-di-O-(4-fluorobenzyl)-D-mannitol] | 
20 µM | NC(=O)c1ccc(CO[C@H](COCc2ccccc2)[C@@H](O)[C@H](O)[C@@H](COCc2ccccc2)OCc2ccc(C(N)=O)cc2)cc1 [Compound 44, 1,6-di-O-benzyl-2,5-di-O-(4-carboxamidobenzyl)-D-mannitol] | 
13 µM | N#Cc1ccc(CO[C@H](COCc2ccccc2)[C@@H](O)[C@H](O)[C@@H](COCc2ccccc2)OCc2ccc(C(N)=O)cc2)cc1 [Compound 60, 1,6-di-O-benzyl-2-O-(4-cyanobenzyl)-5-O-(4-carboxamidobenzyl)-D-mannitol] | 
3.5 µM | Cc1ccc(CO[C@H](COCc2ccccc2F)[C@@H](O)[C@H](O)[C@@H](COCc2ccccc2F)OCc2ccc(C)cc2)cc1 [Compound 56, 1,6-di-O-(2-fluorobenzyl)-2,5-di-O-(4-methylbenzyl)-D-mannitol] | 
1.4 µM | COC(=O)c1ccc(CO[C@H](COCc2ccccc2)[C@@H](O)[C@H](O)[C@@H](COCc2ccccc2)OCc2ccc(C(=O)O)cc2)cc1 [Compound 59, 1,6-di-O-benzyl-2-O-(4-carboxybenzyl)-5-O-(4-carbomethoxybenzyl)-D-mannitol] | 
